# Results: patent US5795859A (priority 1991, dated 1998)
# Ends that are not written are not given here.
# Legend:
# [1] = test system: D-galactosamine sensitized mice; test: TNF toxicity in D-galactosamine sensitized mice; format: in vivo; details: 16 mg D-galactosamine and 2 μg human recombinant TNF i.p., peptide s.c.; survival up to 48 hours
# Protocol: The mice were then injected subcutaneously with either test peptide, phosphate buffered saline or neutralizing anti-TN? monoclonal antibody 47.
# mice = test: In vivo TNF toxicity, blood glucose and appearance; details: 10 μg of Peptide 2, 200 μg recombinant human TNF
# Protocol: Appearance parameters which were evaluated included ruffling of fur, touch sensitivity, presence of eye exudate, light sensitivity and diarrhoea.
# Nonfasting blood glucose levels were determined on a Beckman Glucose Analyzer 2 (Beckman Instruments) or on a Exectech blood glucose sensor (Clifford Hallam Pty. Ltd).
# [2] = test system: Meth A ascites tumour-bearing mice; test: LPS lethality in Meth A ascites tumour-bearing mice; format: in vivo; details: 500 μg E.coli LPS, peptide s.c.; survival up to 64 hours; * heightened activity
# Protocol: In LPS experiments polymyxin B, an LPS inhibitor, replaced MAb 47 as a positive control. The number of animals surviving was assessed at intervals up to 64 hours after LPS challenge.
# [3] = test system: bovine aortic endothelial cells
# Protocol: Endothelial cell procoagulant activity (PCA) induction by TNFα was determined using bovine aortic endothelial cells (BAE) according to the procedure of Bevilacqua et al., 1986 PNAS 83, 4522 with the following modifications: BAE cells were propagated in McCoys 5A medium supplemented with 10% FCS, penicillin, streptomycin and L-gutamine in standard tissue culture flasks and 24-well dishes. TNFα treatment of culture (3 μg/ml) was for 4 hours at 37° C. in the presence of growth medium after which the cells were washed and scrape-harvested before being frozen, thawed and sonicated. Total cellular PCA was determined in a standard one-stage clotting assay using normal donor platelet poor plasma to which 100 μl of CaCl2 and 100 μl of cell lystate was added. Statistical significance was determined by unpaired t-test.
# Protocol for human neutrophils: In these experiments, neutrophils were prepared from blood of healthy volunteers by the rapid single step method (Kowanko and Ferrante 1987 Immunol 62, 149). To 100 μl of 5×10^6 neutrophils/ml was added 100 μl of either 0, 10, 100 μg of peptide/ml and 800 μl of lucigenin (100 μg). The tubes were immediately placed into a light proof chamber (with a 37° C. water jacket incubator) of a luminometer (model 1250; LKB Instruments, Wallac, Turku, Finaldn). The resultant light output (in millivolts was recorded). The results are recorded as the maximal rate of chemiluminescence production.
Substance,IN VIVO TNF TOXICITY D-GAL [1],TNF toxicity as indicated by blood glucose changes (mice),IN VIVO LPS TOXICITY METH A [2],activation of the respiratory burst (human neutrophils),induction of procoagulant activity [3]
ARG THR PRO SER ASP LYS VAL PRO ALA HIS VAL VAL ALA (RTPSDKVPAHVVA; printed: ARG THR PRO SER ASP LYS VAL PRO ALA HIS VAL VAL ALA) [Peptide 2],+ (each group contains 10 animals: scored positive if 6 or more survive),abrogated TNF toxicity,–,–,–
"Ac-PSDKPVA-NH2 [Peptide 29, Ac PRO SER ASP LYS PRO VAL ALA NH2]",–,–,+ (10 animals per group scored positive if 7 or more survive),–,–
"Ac-RTPSDKPVAHV-NH2 [Peptide 30, Ac ARG THR PRO SER ASP LYS PRO VAL ALA HIS VAL NH2]",+ (each group contains 10 animals: scored positive if 6 or more survive),–,+ (10 animals per group scored positive if 7 or more survive),–,–
"VRSSSRTPSDKPVAHVVA [Peptide 1, VAL ARG SER SER SER ARG THR PRO SER ASP LYS PRO VAL ALA HIS VAL VAL ALA]",–,–,–,failed to either activate the respiratory burst,failed to either activate the respiratory burst of human neutrophils (Table 5) or to induce procoagulant activity
